The source of these data is patent US12070444B2, “Modulation of molecular markers using S-equol” (Board of Regents, The University of Texas System, priority 2020, dated 2024).

Molecules are shown by their SMILES. Entries after “also recorded” stand apart in the source; their conditions may differ.

In test [1] the test system is E0771 mammary tumor cell line. In words: E0771 mammary tumor challenge in mice treated with S-equol and/or anti-PD-1 antibody. Type of test: in vivo, mouse. As to conditions: E0771 mammary tumor model, Example 14, four arms (FIG. 33A-B). The method, then:
The following three murine mammary tumor lines were tested to determine the effects of a PD-1 inhibitor, S-equol and a combination of the two therapies on tumor growth: (1) E0771 (B6 background), (2) AT-3 (B6 background), and (3) 4T1 (BalbC background). This experimental design includes four arms (using AT-3 as an example): (1) controls, (2) αPD-1, (3) S-equol, and (4) αPD-1+S-equol (FIG. 3) by injecting into mice 2×10^5 cells subcutaneously into the 4th mammary gland fat pad. Antibodies were administered α-PD-1: 200 μg/mice by i.p. injection every 3 days and S-equol was administered at 50 mg/kg/day by oral gavage. Treatment began 7 day after tumor challenge. Tumor growth trajectories were compared within treated mice using a repeated measures linear mixed model. The primary outcome was the logarithm of the tumor size, and the test statistic is the treatment×time interaction. Tumors were measured about 10 times. The number of recipient mice use used in the studies (n=8 per group) was based on the above study.
For tumor studies, 8 to 10-week-old mice were used. M-Wnt (5 Å˜10^5 cells), E0771 (5 Å˜10^5 cells), AT-3 (2 Å˜10^5 cells), and EMT-6 (5 Å˜10^5 cells) tumor cells were subcutaneously inoculated into the fourth mammary pad. […] Tumor volume was measured with calipers (0.5 Å˜length Å˜width2) on the indicated days. […]

In test [2] the test system is B16 melanoma tumor cell line. The test can be described thus: B16 melanoma tumor challenge in mice treated with S-equol and/or anti-PD-1 antibody. Type of test: in vivo, mouse. The procedure: FIG. 4. A schema for combination therapy. Mice were administered one of: (1) vehicle+rat IgG2a; (2) S-equol+rat IgG2a; (3) vehicle+anti-PD-1 antibody; or (4) S-equol+anti-PD-1 antibody. Mice receiving anti-PD-1 antibody were given 250 μg every 3 days, intraperitoneally, and mice receiving S-equol were given 50 mg/kg per day by oral gavage. Treatment started 7 days after tumor challenge with B16 melanoma.
Melanoma cell line B16 was tested to determine the effects of a PD-1 inhibitor, S-equol and a combination of the two therapies on tumor growth. This experimental design includes four arms: (1) controls, (2) αPD-1, (3) S-equol, and (4) αPD-1+S-equol (FIG. 4) by injecting into mice 5×10^5 cells subcutaneously. Antibodies were administered α-PD-1: 250 μg/mice by i.p. injection every 3 days and S-equol was administered at 50 mg/kg/day by oral gavage. Treatment began 7 day after tumor challenge. Tumor growth trajectories were compared within treated mice using a repeated measures linear mixed model. The primary outcome was the logarithm of the tumor size, and the test statistic is the treatment×time interaction. Tumors were measured about 10 times. The number of recipient mice use used in the studies (n=6 per group) was based on the above study.
For tumor studies, 8 to 10-week-old mice were used. M-Wnt (5 Å˜10^5 cells), E0771 (5 Å˜10^5 cells), AT-3 (2 Å˜10^5 cells), and EMT-6 (5 Å˜10^5 cells) tumor cells were subcutaneously inoculated into the fourth mammary pad. B16F10 (0.5 Å˜10^6 cells) and MC38 (5 Å˜10^6 cells) tumor cells were subcutaneously inoculated into the back flank. Tumor volume was measured with calipers (0.5 Å˜length Å˜width2) on the indicated days. Anti-IgG2a (BioXcell, Cat: #BE0146) and anti-PD-1 (BioXcell, Cat: #BE0089) antibodies were administered through intraperitoneal (i.p.) injection at a dose of […] every 3 days starting on day 7 after tumor challenge for the duration as indicated. S-equol (from Ausio Pharmaceuticals) was administered daily by oral gavage at 50 mg/kg beginning on the day of tumor challenge and continuing throughout the entire tumor growth experiments.

The next test deals with T1, ERβ pY36 (Homo sapiens, UniProt Q92731).
T1 construct: host or cells: MDA-MB-231 (human TNBC cell line)
As to conditions: breast cancer cells; published work (Yuan, 2016); cited from earlier work.

Another test has as its system melanoma. The test can be described thus: Pilot biomarker clinical study of S-equol in melanoma (Example 7, present tense). The class given is in vivo, human. The settings on record: melanoma patients, oral S-equol 50 mg twice daily 10-21 days. The procedure:
A pilot biomarker clinical study is performed in 20 subjects with documented melanoma to determine the effect of the ERβ agonist S-equol on Ki67 an indicator of tumor cell proliferation. Tumor cell proliferation is measured by immunohistological staining for Ki-67. Ki-67 is encoded by the gene MKI67 gene and is required to maintain individual mitotic chromosomes dispersed in the cytoplasm following nuclear envelope disassembly. Measuring the fraction of Ki-67-positive cells in a tumor is known to be a reliable parameter for assessing cancer patient prognosis. Subjects with TNBC are known to have very high levels of Ki67.
Patients enrolled in the study receive a history, physical, laboratory assessment, radiological imaging, and diagnostic biopsies. Immunohistochemistry (IHC) of Ki67 (proliferation marker), total ERβ, and pY36-ERβ (phosphorylated ERβ), B7H1 (also known as PDL-1) and MIA and S100B are conducted using core needle biopsy tissue samples prior to treatment. Patients are given oral S-equol 50 mg, twice daily for approximately two weeks (10-21 days) prior to the scheduled oncologic surgeries or start of primary systemic therapy. […]
A standard procedure for acquiring core biopsy is utilized for determining melanoma prior to enrollment. […] The tissue samples are sent for staining of total and pY36, ERβ and Ki67, and analyzed. […]

T1 sequence (Q92731 whole entry): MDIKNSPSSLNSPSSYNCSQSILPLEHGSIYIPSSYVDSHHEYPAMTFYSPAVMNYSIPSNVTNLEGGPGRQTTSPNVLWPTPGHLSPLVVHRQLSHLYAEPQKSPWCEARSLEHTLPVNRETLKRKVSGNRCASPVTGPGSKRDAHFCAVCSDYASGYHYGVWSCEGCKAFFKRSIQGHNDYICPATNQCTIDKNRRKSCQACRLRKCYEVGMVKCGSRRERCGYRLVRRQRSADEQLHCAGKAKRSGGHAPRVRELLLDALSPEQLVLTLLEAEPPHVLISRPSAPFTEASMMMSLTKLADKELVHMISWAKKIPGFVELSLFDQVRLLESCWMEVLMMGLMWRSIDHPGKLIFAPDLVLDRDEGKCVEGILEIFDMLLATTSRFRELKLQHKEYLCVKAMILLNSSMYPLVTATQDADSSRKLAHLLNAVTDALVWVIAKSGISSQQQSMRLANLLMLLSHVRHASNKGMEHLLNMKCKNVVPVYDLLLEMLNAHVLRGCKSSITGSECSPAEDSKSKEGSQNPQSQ

Take `Oc1ccc([C@H]2COc3cc(O)ccc3C2)cc1` [S-equol]: in test [1], the “tumor response (volume and weight)” value is on record as “responded”. Further, the tumor weight entry in test [2] (B16 melanoma (FIG. 8A)) is recorded as “reduce tumor weight compared to control”. For the same molecule, in test [2] (B16 melanoma, Example 14, four arms (FIG. 26B-C)), the “tumor response (growth and tumor weight)” value was “responded”. For the same molecule, the tumor volume result in test [2] (B16 melanoma, anti-PD-1 250 μg every 3 days i.p., S-equol 50 mg/kg per day oral gavage, over 12 days post-challenge (FIG. 6)) is given as “reduce tumor volume compared to control”; in test [2] (B16 melanoma, anti-PD-1 250 μg every 3 days i.p., S-equol 50 mg/kg per day oral gavage, over 19 days post-challenge (FIG. 7)) it was “reduce tumor volume compared to control”; in test [2] (B16 melanoma, legend headed over 16 days, text says over 12 days post-challenge (FIG. 9A)) it was “reduce tumor volume compared to control”. The “human ERβ phosphorylation at Y36” value at ERβ pY36 is “promotes”. Moreover, in the test with melanoma, the “change in Ki67 pre- vs post-treatment (in words)” value is “measurable decrease in Ki67; also recorded: measurable decline in Ki67”.
